Where two headings read alike, the source gives them in different places.
Tests used:
[1] = system: leukocyte mobilization (blood cell counts); assay: Hematology measurements after PO administration (leukocyte mobilization); type: in vivo, CD-1 mice
Description: At each endpoint, mice were euthanized with CO2 and blood collected via cardiac puncture. An aliquot was set aside at room temperature for hematology measurements with remaining blood processed for plasma for drug concentration determination. Lungs were collected and immediately frozen on dry ice and stored at -70°C until determination of drug concentration.

[2] = system: BLM-induced pulmonary fibrosis; assay: BLM-induced murine model of pulmonary fibrosis; type: in vivo, CD-1 mice
Description: PF was induced in six-weeks old female CD-1 mice purchased from Harlan. Animals were randomly divided into three groups (n = 10/group): PBS plus acetate buffer control, BLM plus acetate buffer and BLM plus AMD070.
On day 0, mice were anaesthetized with isoflurane and PF was induced by BLM administration. Specifically, BLM (C103610, Fresenius Kabi Canada, 2U/kg) in 40 μL PBS or vehicle control (PBS) was administrated by non-surgical endotracheal instillation with sterile disposable plastic loading pipette tips. The next day, AMD070 (Shanghai Haoyuan Chemexpress Co., 400 μg/mouse in 200 μL 30 mM acetate buffer) or 200 μL of 30 mM acetate buffer (pH 5) was administrated via oral gavage (PO) with a 20G feeding needle. AMD070 or acetate buffer vehicle was administrated daily for 21 consecutive days. Animals were euthanized with avertin overdose on day 22.
Following perfusion with PBS, lungs were fixed in 4% paraformaldehyde at 4°C for 2 days. These were embedded in paraffin, sectioned at 1 mm apart and stained with hematoxylin-eosin (H&E) and Masson’s Trichrome stains. For quantitation of percent PF, entire lung and fibrotic areas were outlined. Percent fibrotic area was calculated by dividing fibrotic area (mm^2) by total lung area (mm^2) and multiplying by 100. For H&E stained slides, two histology slides/animal were selected from the central region of the lungs and analyzed whereas only one histology slide/animal was analyzed with Masson’s Trichrome stained slides. These analyses were performed with Image J and the analyst was blinded to sample identification.

[3] = AMD070 PK study via IP injection: plasma, lung and liver concentration; type: in vivo, C57BL/6 mice; conditions: IP 400 μg/mouse; for concentration at 6 h: six hours post administration; for Kp: C57BL/6, read-out: Tissue AUC/Plasma AUC
Description: At each endpoint, animals were euthanized with CO2 and blood collected via cardiac puncture. An aliquot was set aside at room temperature for hematology measurements with remaining blood processed for plasma for drug concentration determination. Lungs and livers were also collected and immediately frozen on dry ice and stored at -70°C until determination of drug concentration. AMD070 concentrations in mouse plasma were determined using protein precipitation extraction followed by UPLC-MS/MS analysis. Briefly, 100 μL aliquots of plasma were transferred to individual wells of an Isolute PPT+ (Biotage) array plate containing 300 μL of 0.1% formic acid (FA) in acetonitrile (ACN). […] The sample residue was then reconstituted into 200 μL of 0.1/5/95 FA/ACN/H2O (v/v/v) and analyzed using reverse phase chromatography (gradient elution) combined with multiple reaction monitoring acquisition (MRM). The mobile phases consisted of 0.1% FA in H2O and 0.1% FA in ACN. AMD070 was extracted from lung and liver tissue by homogenization under basic conditions followed by liquid-liquid extraction in tert-butyl methyl ether (TBME) and ethyl acetate respectively. In summary, 50 mg of lung or liver tissue pieces were cut, weighed, and transferred to homogenization tubes. 25 μL of deionized water for lung and 10 μL for liver were added to each tube, followed by the addition of zirconium (Zr) homogenization beads. The samples were homogenized for approximately 20 seconds in the BeadBeater, followed by 1 minute of centrifugation at room temperature at 13,520 rcf. 200 μL of 1 N NaOH was then transferred to each tube, followed by a second homogenization/centrifugation cycle as described above. […] The dried residue was reconstituted into 0.1/5/95 TFA/ACN/H2O and analyzed using reverse phase chromatography (gradient elution) combined with MRM acquisition in positive electrospray mode (ES+). The mobile phases consisted of 0.1% TFA in H2O and 0.1% TFA in ACN.

CXCR4 = system: CXCR4; parameters: method as in PMID 20297846; conditions: cited from earlier work
[4] = system: mobilization of bone marrow hematopoietic progenitors; parameters: method as in PMID 17452489; conditions: human subjects; cited from earlier work
[5] = BLM plus AMD070 400 μg/mouse PO daily 21 days, day 22, mean, n = 9

NCCCCN(Cc1nc2ccccc2[nH]1)[C@H]1CCCc2cccnc21 [AMD070]
Tmax of WBC increase ([1]; PO 200 μg/mouse): 3 h
WBC counts ([1]; PO 200 μg/mouse): significant, transient increase
WBC counts ([1]; PO 400 μg/mouse): increased and remained elevated for the full 24 hours
eosinophils (WBC differential) ([1]; PO 200 or 400 μg/mouse): no increases
lymphocytes (WBC differential) ([1]; PO 200 or 400 μg/mouse): increased
monocytes (WBC differential) ([1]; PO 200 or 400 μg/mouse): no increases
neutrophils (WBC differential) ([1]; PO 200 or 400 μg/mouse): no increases
platelet counts ([1]; PO 200 or 400 μg/mouse): did not change
red blood cell (RBC) counts ([1]; PO 200 or 400 μg/mouse): did not change
lung fibrosis, Masson's Trichrome [2, 5]: 10.5%
lung inflammation, H & E stained lungs (percent surface area) [2, 5]: 14.2%
survival over the duration of the study ([2]; BLM plus AMD070 400 μg/mouse PO daily, 22 days, BLM plus acetate buffer 40%): 90%
Cmax ([3]; C57BL/6, 400 ug, Liver): 14300 ng/g
Tmax ([3]; C57BL/6, 400 ug, Liver): 30 min
Cmax ([3]; C57BL/6, 400 ug, Lung): 6140 ng/g
Tmax ([3]; C57BL/6, 400 ug, Lung): 30 min
Cmax ([3]; C57BL/6, 400 ug, Plasma): 770 ng/mL
Tmax ([3]; C57BL/6, 400 ug, Plasma): 30 min
AUC ([3]; C57BL/6, 400 ug, Plasma, read-out: AUC (all time points)): 1240 ng·h/mL
concentration at 6 h ([3]; C57BL/6, liver, read-out: liver concentration): 6470 ng/g
concentration at 6 h ([3]; C57BL/6, lung, read-out: lung concentration): 3740 ng/g
concentration at 6 h ([3]; C57BL/6, plasma, read-out: plasma concentration): 45 ng/mL
Kp ([3]; Liver): 90.7
Kp ([3]; Lung): 61.2
liver concentration (peak) ([3]; 30 minutes post administration): 14.3 µg/g
lung concentration (peak) ([3]; 30 minutes post administration): 6.14 µg/g
plasma concentration (peak) ([3]; 30 minutes post administration): 0.77 µg/mL
protein binding adjusted effective concentration (EC90) (CXCR4; 90% effectiveness): 44 ng/mL
IC50 (CXCR4): 13 nM
time of peak mobilization of bone marrow hematopoietic progenitors post dosing [4]: two to three
